Experimental data taken from US8829007B2 (priority 2009, dated 2014).
Like-named read-outs stand apart in the source and are kept apart here.

How the values were obtained:
[1] = tested on: A/PR/8/34 influenza virus; experiment: microbe, parasite or virus in culture; assay type: cell-based
[2] = tested on: influenza A virus (A/PR/8/34); experiment: microbe, parasite or virus in culture; assay type: cell-based; settings: Influenza A virus, PR/8, MDCK, read-out: IC50 (mean all)
[3] = Influenza A virus, PR/8, MDCK, MDCK cells infected with A/PR/8/34, bDNA viral RNA; read-out: EC50 (mean all)
[4] = MDCK cells infected with A/PR/8/34, cell protection (CPE)
[5] = Influenza A virus, PR/8, MDCK, read-out: EC50 (mean all)
[6] = Influenza A virus, PR/8, MDCK; read-out: EC50 (mean all)

## O=C(Cc1ccccc1)N1CCC[C@H](CNc2nc(-c3c[nH]c4ncc(Cl)cc34)ncc2F)C1 [Compound 56, (R)-1-(3-((2-(5-chloro-1H-pyrrolo[2,3-b]pyridin-3-yl)-5-fluoropyrimidin-4-ylamino)methyl)piperidin-1-yl)-2-phenylethanone]
[1]; [3]
  EC50: < 5 µM
[2]; [4]
  IC50: < 5 µM

## CC(C)=CC(=O)N1CCC[C@H](CNc2nc(-c3c[nH]c4ncc(Cl)cc34)ncc2F)C1 [Compound 57, (R)-1-(3-((2-(5-chloro-1H-pyrrolo[2,3-b]pyridin-3-yl)-5-fluoropyrimidin-4-ylamino)methyl)piperidin-1-yl)-3-methylbut-2-en-1-one]
[1]; [5]
  EC50: < 5 µM
[2]
  IC50: < 5 µM

## O=S(=O)(/C=C/c1ccccc1)N1CCC[C@H](CNc2nc(-c3c[nH]c4ncc(Cl)cc34)ncc2F)C1 [Compound 60, (R,E)-2-(5-chloro-1H-pyrrolo[2,3-b]pyridin-3-yl)-5-fluoro-N-((1-(styrylsulfonyl)piperidin-3-yl)methyl)pyrimidin-4-amine]
[1]; [3]
  EC50: < 5 µM
[2]; [4]
  IC50: < 5 µM

## O=S(=O)(C1CC1)N1CCC[C@H](CNc2nc(-c3c[nH]c4ncc(Cl)cc34)ncc2F)C1 [Compound 61, (R)-2-(5-chloro-1H-pyrrolo[2,3-b]pyridin-3-yl)-N-((1-(cyclopropylsulfonyl)piperidin-3-yl)methyl)-5-fluoropyrimidin-4-amine]
[1]; [3]
  EC50: < 5 µM
[2]; [4]
  IC50: < 5 µM

## COc1cccc(S(=O)(=O)N2CCC[C@H](CNc3nc(-c4c[nH]c5ncc(Cl)cc45)ncc3F)C2)c1 [Compound 62, (R)-2-(5-chloro-1H-pyrrolo[2,3-b]pyridin-3-yl)-5-fluoro-N-((1-(3-methoxyphenylsulfonyl)piperidin-3-yl)methyl)pyrimidin-4-amine]
[1]; [3]
  EC50: < 5 µM
[2]; [4]
  IC50: < 5 µM

## O=S(=O)(c1ccc(F)cc1)N1CCC[C@H](CNc2nc(-c3c[nH]c4ncc(Cl)cc34)ncc2F)C1 [Compound 64, (R)-2-(5-chloro-1H-pyrrolo[2,3-b]pyridin-3-yl)-5-fluoro-N-((1-(4-fluorophenylsulfonyl)piperidin-3-yl)methyl)pyrimidin-4-amine]
[1]; [3]
  EC50: < 5 µM
[2]; [4]
  IC50: 5 to 20 µM

## O=S(=O)(c1cccc(F)c1)N1CCC[C@H](CNc2nc(-c3c[nH]c4ncc(Cl)cc34)ncc2F)C1 [Compound 65, (R)-2-(5-chloro-1H-pyrrolo[2,3-b]pyridin-3-yl)-5-fluoro-N-((1-(3-fluorophenylsulfonyl)piperidin-3-yl)methyl)pyrimidin-4-amine]
[1]; [3]
  EC50: < 5 µM
[2]; [4]
  IC50: < 5 µM

## Cc1cccc(S(=O)(=O)N2CCC[C@H](CNc3nc(-c4c[nH]c5ncc(Cl)cc45)ncc3F)C2)c1 [Compound 66, (R)-2-(5-chloro-1H-pyrrolo[2,3-b]pyridin-3-yl)-5-fluoro-N-((1-(m-tolylsulfonyl)piperidin-3-yl)methyl)pyrimidin-4-amine]
[1]; [3]
  EC50: < 5 µM
[2]; [4]
  IC50: < 5 µM

## O=S(=O)(c1cccc(Br)c1)N1CCC[C@H](CNc2nc(-c3c[nH]c4ncc(Cl)cc34)ncc2F)C1 [Compound 67, (R)—N-((1-(3-bromophenylsulfonyl)piperidin-3-yl)methyl)-2-(5-chloro-1H-pyrrolo[2,3-b]pyridin-3-yl)-5-fluoropyrimidin-4-amine]
[1]; [3]
  EC50: < 5 µM
[2]; [4]
  IC50: < 5 µM

## O=C(Oc1ccccc1)N1CCC[C@H](CNc2nc(-c3c[nH]c4ncc(Cl)cc34)ncc2F)C1 [Compound 68, (R)-phenyl 3-((2-(5-chloro-1H-pyrrolo[2,3-b]pyridin-3-yl)-5-fluoropyrimidin-4-ylamino)methyl)piperidine-1-carboxylate]
[1]; [6]
  EC50: < 5 µM
[2]
  IC50: 5 to 20 µM

## COc1ccccc1OC(=O)N1CCC[C@H](CNc2nc(-c3c[nH]c4ncc(Cl)cc34)ncc2F)C1 [Compound 69, (R)-2-methoxyphenyl 3-((2-(5-chloro-1H-pyrrolo[2,3-b]pyridin-3-yl)-5-fluoropyrimidin-4-ylamino)methyl)piperidine-1-carboxylate]
[1]; [6]
  EC50: < 5 µM
[2]
  IC50: < 5 µM

## O=C(Oc1ccccc1Cl)N1CCC[C@H](CNc2nc(-c3c[nH]c4ncc(Cl)cc34)ncc2F)C1 [Compound 70, (R)-2-chlorophenyl 3-((2-(5-chloro-1H-pyrrolo[2,3-b]pyridin-3-yl)-5-fluoropyrimidin-4-ylamino)methyl)piperidine-1-carboxylate]
[1]; [6]
  EC50: < 5 µM
[2]
  IC50: < 5 µM

## C=C(C)OC(=O)N1CCC[C@H](CNc2nc(-c3c[nH]c4ncc(Cl)cc34)ncc2F)C1 [Compound 74, (R)-prop-1-en-2-yl 3-((2-(5-chloro-1H-pyrrolo[2,3-b]pyridin-3-yl)-5-fluoropyrimidin-4-ylamino)methyl)piperidine-1-carboxylate]
[1]; [5]
  EC50: < 5 µM
[2]
  IC50: < 5 µM

## O=C(Nc1cccc(F)c1)N1CCC[C@H](CNc2nc(-c3c[nH]c4ncc(Cl)cc34)ncc2F)C1 [Compound 75, (R)-3-((2-(5-chloro-1H-pyrrolo[2,3-b]pyridin-3-yl)-5-fluoropyrimidin-4-ylamino)methyl)-N-(3-fluorophenyl)piperidine-1-carboxamide]
[1]; [3]
  EC50: < 5 µM
[2]; [4]
  IC50: < 5 µM

## COc1cccc(NC(=O)N2CCC[C@H](CNc3nc(-c4c[nH]c5ncc(Cl)cc45)ncc3F)C2)c1 [Compound 76, (R)-3-((2-(5-chloro-1H-pyrrolo[2,3-b]pyridin-3-yl)-5-fluoropyrimidin-4-ylamino)methyl)-N-(3-methoxyphenyl)piperidine-1-carboxamide]
[1]; [3]
  EC50: < 5 µM
[2]; [4]
  IC50: < 5 µM

## Cc1cccc(NC(=O)N2CCC[C@H](CNc3nc(-c4c[nH]c5ncc(Cl)cc45)ncc3F)C2)c1 [Compound 78, (R)-3-((2-(5-chloro-1H-pyrrolo[2,3-b]pyridin-3-yl)-5-fluoropyrimidin-4-ylamino)methyl)-N-m-tolylpiperidine-1-carboxamide]
[1]; [3]
  EC50: < 5 µM
[2]; [4]
  IC50: < 5 µM

## CC(C)(CC(=O)O)CC(=O)N1CCC[C@H](CNc2nc(-c3c[nH]c4ncc(Cl)cc34)ncc2F)C1 [Compound 80, (R)-5-(3-((2-(5-chloro-1H-pyrrolo[2,3-b]pyridin-3-yl)-5-fluoropyrimidin-4-ylamino)methyl)piperidin-1-yl)-3,3-dimethyl-5-oxopentanoic acid]
[1]; [3]
  EC50: < 5 µM
[2]; [4]
  IC50: < 5 µM

## O=C(O)CC1(CC(=O)N2CCC[C@H](CNc3nc(-c4c[nH]c5ncc(Cl)cc45)ncc3F)C2)CCCC1 [Compound 81, (R)-2-(1-(2-(3-((2-(5-chloro-1H-pyrrolo[2,3-b]pyridin-3-yl)-5-fluoropyrimidin-4-ylamino)methyl)piperidin-1-yl)-2-oxoethyl)cyclopentyl)ethanoic acid]
[1]; [3]
  EC50: < 5 µM
[2]; [4]
  IC50: < 5 µM

## O=C(c1ccccc1Cl)N1CCC[C@H](CNc2nc(-c3c[nH]c4ncc(Cl)cc34)ncc2F)C1 [Compound 84, (R)-(3-((2-(5-chloro-1H-pyrrolo[2,3-b]pyridin-3-yl)-5-fluoropyrimidin-4-ylamino)methyl)piperidin-1-yl)(2-chlorophenyl)methanone]
[1]; [3]
  EC50: < 5 µM
[2]; [4]
  IC50: < 5 µM

## O=C(c1ccc(F)c(F)c1)N1CCC[C@H](CNc2nc(-c3c[nH]c4ncc(Cl)cc34)ncc2F)C1 [Compound 85, (R)-(3-((2-(5-chloro-1H-pyrrolo[2,3-b]pyridin-3-yl)-5-fluoropyrimidin-4-ylamino)methyl)piperidin-1-yl)(3,4-difluorophenyl)methanone]
[1]; [3]
  EC50: < 5 µM
[2]; [4]
  IC50: 5 to 20 µM

## O=C(c1cc(F)cc(F)c1)N1CCC[C@H](CNc2nc(-c3c[nH]c4ncc(Cl)cc34)ncc2F)C1 [Compound 86, (R)-(3-((2-(5-chloro-1H-pyrrolo[2,3-b]pyridin-3-yl)-5-fluoropyrimidin-4-ylamino)methyl)piperidin-1-yl)(3,5-difluorophenyl)methanone]
[1]; [3]
  EC50: < 5 µM
[2]; [4]
  IC50: < 5 µM

## O=S(=O)(c1ccccc1)N1CCC[C@H](CNc2nc(-c3c[nH]c4ncc(Cl)cc34)ncc2F)C1 [Compound 87, (R)-2-(5-chloro-1H-pyrrolo[2,3-b]pyridin-3-yl)-5-fluoro-N-((1-(phenylsulfonyl)piperidin-3-yl)methyl)pyrimidin-4-amine]
[1]; [3]
  EC50: < 5 µM
[2]; [4]
  IC50: < 5 µM

## O=S(=O)(c1cccs1)N1CCCC(CNc2nc(-c3c[nH]c4ncc(Cl)cc34)ncc2F)C1 (centres unmarked) [Compound 89]
[1]; [3]
  EC50: < 5 µM
[2]; [4]
  IC50: < 5 µM

## O=S(=O)(c1ccccc1F)N1CCC[C@H](CNc2nc(-c3c[nH]c4ncc(Cl)cc34)ncc2F)C1 [Compound 90, (R)-2-(5-chloro-1H-pyrrolo[2,3-b]pyridin-3-yl)-5-fluoro-N-((1-(2-fluorophenylsulfonyl)piperidin-3-yl)methyl)pyrimidin-4-amine]
[1]; [3]
  EC50: < 5 µM
[2]; [4]
  IC50: < 5 µM

## Cn1cnc(S(=O)(=O)N2CCC[C@H](CNc3nc(-c4c[nH]c5ncc(Cl)cc45)ncc3F)C2)c1 [Compound 91, (R)-2-(5-chloro-1H-pyrrolo[2,3-b]pyridin-3-yl)-5-fluoro-N-((1-(1-methyl-1H-imidazol-4-ylsulfonyl)piperidin-3-yl)methyl)pyrimidin-4-amine]
[1]; [3]
  EC50: < 5 µM
[2]; [4]
  IC50: < 5 µM

## O=C(CCl)N1CCC[C@H](CNc2nc(-c3c[nH]c4ncc(Cl)cc34)ncc2F)C1 [Compound 92, (R)-2-chloro-1-(3-((2-(5-chloro-1H-pyrrolo[2,3-b]pyridin-3-yl)-5-fluoropyrimidin-4-ylamino)methyl)piperidin-1-yl)ethanone]
[1]; [3]
  EC50: < 5 µM
[2]; [4]
  IC50: < 5 µM

## CC(Cl)C(=O)N1CCC[C@H](CNc2nc(-c3c[nH]c4ncc(Cl)cc34)ncc2F)C1 (stereo partly drawn) [Compound 93, 2-chloro-1-((R)-3-((2-(5-chloro-1H-pyrrolo[2,3-b]pyridin-3-yl)-5-fluoropyrimidin-4-ylamino)methyl)piperidin-1-yl)propan-1-one]
[1]; [3]
  EC50: < 5 µM
[2]; [4]
  IC50: < 5 µM

## O=C(COc1ccccc1)N1CCC[C@H](CNc2nc(-c3c[nH]c4ncc(Cl)cc34)ncc2F)C1 [Compound 94, (R)-1-(3-((2-(5-chloro-1H-pyrrolo[2,3-b]pyridin-3-yl)-5-fluoropyrimidin-4-ylamino)methyl)piperidin-1-yl)-2-phenoxyethanone]
[1]; [3]
  EC50: < 5 µM
[2]; [4]
  IC50: < 5 µM
